Measurements taken from patent publication US5591773A, “Inhibition of cataract formation, diseases resulting from oxidative stress, and HIV replication by caffeic acid esters” (priority 1994, dated 1997).
pIC50: −log10 of the molar value. Entries after “also recorded” stand apart in the source; their conditions may differ.

What was measured:
HRPO = test: Degradation of H2O2 / inhibition of HRPO; assay type: biochemical; details: unpublished results of Bhimani and Frenkel
[1] = test system: ornithine decarboxylase (ODC); test: TPA-induced ornithine decarboxylase (ODC) in CD-1 mice; assay type: in vivo; details: CAPE 1 μmol, TPA 5 nmol, (76)
Procedure: (§1) A) Treatment of Animals and Assays. Female SENCAR (6-8 weeks old) and CD-1 mice (about 7 weeks old) were purchased from Biological Testing, National Cancer Institute (Frederick, Md.) and from Charles River Laboratory (Stone Ridge, N.Y.), respectively. The mice were acclimated for at least 1 week before use. They were subjected to a 12-h light/12-h dark cycle, housed at 20°±2° C. in a room with 10 cycles of air exchanges/h, given food and water ad libitum, and observed for any indication of ill health. Before topical application of any test agents, their backs were shaved and only those without hair growth after 48 h were used.

transformed cells = details: cited from earlier work
[2] = test system: Fischer cloned rat embryo fibroblasts; details: cited from earlier work
normal tissue = details: cited from earlier work
[3] = test system: oxidative burst of human PMNs; test: H2O2 formation by TPA-stimulated human PMNs (phenol red/HRPO); assay type: cell-based
Procedure: FIG. 4. CAPE-mediated inhibition of H2 O2 formation by TPA-stimulated human PMNs. Cells were incubated with CAPE (0.05-5 nmol/ml) and TPA (25 pmol/2.5×10^5 PMNs/ml) at 37° C. for 30 min, and H2 O2 was determined by the phenol red/HRPO assay, as described in the "Experimental Details" Section, infra. Note the semilog scale. The results are presented as mean values ±SE.
A) Human PMNS Blood was obtained from healthy volunteers and collected into EDTA-containing tubes. Red cells were removed by dextran sedimentation and lysis with hypotonic ammonium chloride, as described previously (5). Cells were washed in glucose-containing basic salt solution (137 mM NaCl, 5 mM KCl, 8.5 mM Na2 HPO4 -NaH2 PO4, 0.8 mM MgSO4, 5 mM glucose, pH 7.4) and suspended at a ratio of 10 ml of the initial blood volume/ml basic salt solution. Whole WBC population was used as a source of PMNs, with PMN numbers used per assay being adjusted according to the results of Wright's staining of the peripheral blood.
PMNs (2.5×10^5 /ml) were incubated with CAPE (0.05-5.0 nmol/ml) and/or TPA (25 pmol/ml) at 37° C. for 30 min in the presence of phenol red (100 μg) and HRPO (50 μg) (54). After the reaction was stopped with catalase (50 μg/ml), the pH was adjusted to 12.5 with NaOH, the mixture was centrifuged, and the absorbance of the supernatant was determined at 598 nm. […]

[4] = test system: NIH 10T1/2, Ltk^- and rat 6 cells transformed with T24 oncogene; details: cited from earlier work
[5] = test system: ornithine decarboxylase (ODC); test: TPA-induced ornithine decarboxylase (ODC) in SENCAR mice; assay type: in vivo; details: CAPE 10 μmol, TPA 4 nmol
Procedure: as §1

[6] = test system: untransformed rat 6 cells; details: cited from earlier work
HIV integrase = details: cited from earlier work
mouse skin = details: cited from earlier work
bovine lens (opacity) = details: 1 μM TPA; cited from earlier work

O=C(/C=C/c1ccc(O)c(O)c1)OCCc1ccccc1 [CAPE, Caffeic acid phenethyl ester]
degradation of H2O2 or inhibition of HRPO (in words) (HRPO): does not degrade H2 O2 or inhibit HRPO | inhibition of TPA-induced ODC [1]: 55% | selective toxicity (in words) (transformed cells): selectively toxic to transformed cells but not to normal cells | inhibition of adenovirus type 5 E1A-mediated transformation; cytotoxicity (in words) [2]: inhibit the transformation mediated by adenovirus type 5 E1A; also recorded: more cytotoxic to transformed Fischer cloned rat embryo fibroblasts than to wild type cells | toxicity to normal tissue (in words) (normal tissue): not toxic to normal tissue | pIC50 ([3]; 0.5 h, human PMNs 2.5×10^5/ml, TPA 25 pmol/ml, 37° C., 30 min, read-out: 50% inhibition of oxidative burst of PMNs (H2O2 production)): 6.30 | inhibition of oxidative burst (in words) ([3]; CAPE 0.05-5.0 nmol/ml): inhibited the oxidative burst of PMNs (as measured by H2 O2 production) in a dose-dependent manner | growth inhibition (in words) [4]: inhibited | inhibition of TPA-induced ODC [5]: 62% | growth inhibition, untransformed rat 6 cells (in words) [6]: but not that of the untransformed rat 6 cells | HIV integrase inhibition (in words) (HIV integrase): inhibits HIV integrase

CCCCCCCCCCCCCC(=O)O[C@@H]1[C@@H](C)[C@@]2(O)[C@@H](C=C(CO)C[C@]3(O)C(=O)C(C)=C[C@@H]23)[C@@H]2C(C)(C)[C@]12OC(C)=O [TPA, 12-O-tetradecanoylphorbol-13-acetate]
H2O2 production and oxidation of DNA bases in vivo (in words) (mouse skin): induce H2 O2 production in mouse skin as well as cause oxidation of DNA bases in vivo | lens opacity (in words) (bovine lens (opacity)): even more pronounced; also recorded: causes its opacity
